From ChEMBL document CHEMBL3638391, “Flap modulators” (2015)

Biological target: T1, Arachidonate 5-lipoxygenase-activating protein (Homo sapiens, UniProt P20292)
T1 sequence (P20292 whole entry): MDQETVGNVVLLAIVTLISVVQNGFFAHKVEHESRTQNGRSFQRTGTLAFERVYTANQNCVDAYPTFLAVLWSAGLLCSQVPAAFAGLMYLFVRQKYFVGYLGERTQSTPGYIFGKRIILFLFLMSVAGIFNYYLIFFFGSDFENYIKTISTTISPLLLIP
Test: Homogeneous Time Resolved Fluorescence Assay: The assay below is used to test the modulatory activity of compounds against FLAP. Human and mouse FLAP-encoding DNA was amplified by polymerase chain reaction and cloned into pFastBacl (Invitrogen) with a NH2-terminal 6-His tag for expression in Spodoptera frugiperda (Sf-9) cells. FLAP-containing membranes were prepared as was a FITC-labeled FLAP …
Description: Homogeneous Time Resolved Fluorescence Assay: The assay below is used to test the modulatory activity of compounds against FLAP. Human and mouse FLAP-encoding DNA was amplified by polymerase chain reaction and cloned into pFastBacl (Invitrogen) with a NH2-terminal 6-His tag for expression in Spodoptera frugiperda (Sf-9) cells. FLAP-containing membranes were prepared as was a FITC-labeled FLAP modulator [5-[({[2-(2-{3-[3-(tert-Butylsulfanyl)-1-(4-chlorobenzyl)-5-(quinolin-2-ylmethoxy)-1H-indol-2-yl]-2,2-dimethylpropanoyl}hydrazino)-2-oxoethyl]sulfanyl}acetyl)amino]-2-(6-hydroxy-3-oxo-3H-xanthen-9-yl)benzoic acid]. The FLAP binding assay is performed in HTRF format (homogeneous time resolved fluorescence).

C[C@@H]([C@@H](O)c1ccccc1)N(C)S(=O)(=O)c1ccccc1-c1ccc(-c2ccc(N)nc2)c(F)c1
Ki: 3.2 nM
